Results on eight compounds are retold here after patent publication US20250289785A1, “INDOLE DERIVATIVE, METHOD FOR PREPARING SAME, AND USE THEREOF” (MITOIMMUNE THERAPEUTICS INC., priority 2021, published 2025).

In data set [1] the test system is H9C2 cells. In words: Cell death protective effect in cardiac myocytes against Erastin, glutamate and RSL3 (LDH). The format is cell-based, white mouse. The note with it: 24 h. As for the experimental part:
In order to identify the protective effect on cardiac cells, H9C2 cells were divided into 96-well plates by 1×10^4 and cultured for 18 to 24 hours. The compounds of Examples were diluted to final concentrations of 0.1 and 1.0 μM, treated in each well, and incubated for 15 to 20 minutes. Erastin, glutamate, and RSL3 were treated to have final concentrations of 1 μM, 25 mM, and 0.5 μM, respectively, and cultured for 24 hours. In order to identify the protective effect of each compound, the degree of LDH extracellular secretion was measured using cytotoxicity LDH assay kit [Dojindo; CK12]. Briefly, at the time when the treatment of the cells with Erastin, glutamate, and RSL3 for 24 hours is completed, the supernatants containing the cells are taken by 70 μL and transferred to a new 96-well plate. The assay buffer included in the kit is added in an amount of 70 μL/well (the same amount as the sample) thereto, and then the plate is wrapped with a foil and the reaction is performed at room temperature for 15 minutes.

For data set [2], the system named is H9C2 cells. The data set is described as follows: Cell protection effect against t-BHP in heart cells (LDH release). The format is cell-based. The note with it: H9C2, t-BHP 40 μM, 2 hours. As for the experimental part: In order to identify the protective effect with regard to heart cells, H9C2 cells were divided into 96-well plates by 1.5×10^4, and cultured for 24 hours. The respective wells were treated with compounds of the examples 3× serial diluted to final concentrations of […], then cultured for 15 to 20 minutes. After treating with t-BHP with a final concentration of 40 μM, culturing was performed for 2 hours. In order to identify the protective effect of each compound, a Cytotoxicity LDH assay kit [Dojindo; CK12] was used to measure the degree of extracellular secretion of LDH. To describe briefly, at the time point 2-hour treatment of the cells with t-BHIP was completed, 100 μL each of the supernatant in which the cells were placed was collected and moved to a new 96-well plate. 100 μL/well of the assay buffer included in the kit (same amount as the sample) was added, followed by wrapping with foil and reacting for 30 minutes at room temperature. Observing the change in color of the sample, 50 μL/well of stop solution was added, then an iD3 spectrometer was used to measure absorbance at 490 nm and calculate the EC50 values. The EC50 of the compounds of the examples is preferably no more than 1.0 μM, and more preferably no more than 0.3 μM.
On the technique in general: LDH in the medium is a marker of cell lysis.

Data set [3] in a line: Plasma and brain concentration after oral administration to ICR mice (HPLC-MS/MS). It is filed as in vivo. Particulars: 10 mg/kg; for concentration at 2 h / concentration at 24 h / AUC(0-t): ICR, mouse, po. As for the experimental part: […] parameters can be represented as maximum concentration in plasma (Cmax), time taken until maximum concentration in plasma (Tmax), area under the plasma concentration-time curve (AUClast and AUCinf), and half-life (t1/2), and the like.
The compound of example 2 was orally administered to ICR mice at a dose of 10 mg/kg, and drug concentration in mouse plasma was measured using HPLC-MS/MS spectroscopy at 0.5, 1, 2, 4, 8 and 24 hours. The mouse brains were removed at 2 or 24 hours, and drug concentration in the brain was measured using HPLC-MS/MS spectroscopy. The area under the plasma concentration v. time curve (AUCinf) was measured to be […], and at 2 hours after administration drug concentration in plasma was 546 ng/mL and brain drug concentration was measured at 1043 ng/mL. […] Further, at 24 hours after administration, for Embodiment 2, drug concentration in plasma was measured to be 4.7 ng/mL and drug concentration in the brain was measured at 5.7 ng/mL. With the brain-plasma drug concentration ratio at 1.23, drug exposure in the brain was still high.
The Comparative Example compound was orally administered to ICR mice at a dose of 10 mg/kg, and drug concentration in mouse plasma was measured using HPLC-MS/MS spectroscopy at 0.5, 1, 2, 4, 8 and 24 hours. The mouse brains were removed at 2 or 24 hours, and drug concentration in the brain was measured using HPLC-MS/MS spectroscopy.

Data set [4] concerns H9C2 cells. The data set is described as follows: Maintenance of intracellular calcium level in heart cells treated with t-BHP (FLIPR Calcium 6). It is filed as cell-based, rat. The note with it: H9C2, t-BHP 150 μM. The method, then: To examine the maintenance effect on calcium level in heart cells, H9C2 cells were divided into a 96-well plate by 1.5×10^4 cells/well and cultured for 24 hours. To measure intracellular calcium level, a FLIPR Calcium 6 assay kit (Molecular devices; #R8190) was used. Following the experimental method provided by the manufacturer, cells were treated with probenecid and calcium-sensitive dye for 1.75 hours, and then the cells were treated with the compound of Example 2 for 0.25 hours (the final concentration of the compound was 0.02 or 0.01 μM). And the cells were treated with t-BHP to a final concentration of 150 μM, then intracellular calcium level was measured every 30 seconds in real time.
FIG. 1 is a graph regarding the regulatory effect of the compound of Example 2 on calcium level under t-BHP treatment. The ΔF/F(Max−Min) value on the vertical axis is the difference between the maximum and minimum fluorescence intensity values of the calcium-sensitive dye after treatment with t-BHP (150 μM), and this value increases as intracellular calcium level increases.

The mark [5] stands for this setting: H9C2, Erastin, 1 μM, compound 0.1 μM.
[6] abbreviates: H9C2, Erastin, 1 μM, compound 1.0 μM.
Where [7] appears, read: H9C2, Glutamate, 25 mM, compound 0.1 μM.
Where [8] appears, read: H9C2, Glutamate, 25 mM, compound 1.0 μM.
[9] abbreviates: H9C2, RSL3, 0.5 μM, compound 0.1 μM.
The mark [10] stands for this setting: H9C2, RSL3, 0.5 μM, compound 1.0 μM.
The mark [11] stands for this setting: ICR mouse, 2 hours after administration.

Like-named read-outs stand apart in the source and are kept apart here.

In general, EC50 refers to the concentration at which the effect is half-maximal. With `COCc1cc(NC2CCOCC2)c2[nH]c(-c3ccccc3)cc2c1` [Example 1, 5-(methoxymethyl)-2-phenyl-N-tetrahydropyran-4-yl-1H-indol-7-amine], the “inhibition (%)” value was 100% in data set [1] (setting [5]); 100% in data set [1] (setting [6]); 97% in data set [1] (setting [7]); 98% in data set [1] (setting [8]); 100% in data set [1] (setting [9]); 100% in data set [1] (setting [10]). The EC50 in data set [2] was no more than 300 nM.

Turning to `COCc1cc(NC2CCCC2)c2[nH]c(-c3ccccc3)cc2c1` [Example 2, N-cyclopentyl-5-(methoxymethyl)-2-phenyl-1H-indol-7-amine], the brain drug concentration in data set [3] (setting [11]) was determined as 1043.2 ng/mL. For the same compound, the “drug concentration in plasma” value in data set [3] (setting [11]) is given as 546.1 ng/mL. In data set [3] (ICR mouse, from the 2 and 24 hr samples), the “AUClast, Brain” value amounted to 12581.1 ng·h/g. Further, the AUC(0-inf) in data set [3] (ICR mouse, plasma, read-out: area under the plasma concentration v. time curve (AUCinf)) was found to be 4960 ng·h/mL. Further, the concentration at 2 h in data set [3] (brain, 2 hours after administration, read-out: brain drug concentration) was 1040 ng/mL; in data set [3] (plasma, 2 hours after administration, read-out: drug concentration in plasma) it was 546 ng/mL. The concentration at 24 h was determined as 5.7 ng/mL in data set [3] (brain, 24 hours after administration, read-out: drug concentration in the brain) and 4.7 ng/mL in data set [3] (plasma, 24 hours after administration, read-out: drug concentration in plasma). Further, the AUC(0-t) was found to be 6600 ng·h/mL in data set [3] (plasma, from the 2 and 24 hr samples, read-out: AUClast, Plasma); 4940 ng·h/mL in data set [3] (plasma, plasma, read-out: 0.5~24 hr AUClast); 4940 ng·h/mL in data set [3] (plasma, plasma, read-out: area under the plasma concentration v. time curve (AUClast)). For the same compound, in data set [3] (brain/plasma, ICR mouse, 2 hours after administration, read-out: brain-plasma drug concentration ratio (B/P ratio)), the Kp at 2 h turned out to be 1.91. The Kp at 24 h in data set [3] (brain/plasma, ICR mouse, 24 hours after administration, read-out: brain-plasma drug concentration ratio (B/P ratio)) turned out to be 1.23. For the same compound, the Kp in data set [3] (brain/plasma, ICR mouse, read-out: AUClast B/P ratio) was determined as 1.9. Moreover, the “intracellular calcium level, ΔF/F(Max−Min)” value is “significantly decreased” in data set [4] (compound 0.01 μM) and “within normal range” in data set [4] (compound 0.02 μM). Moreover, the “inhibition (%)” value in data set [1] (setting [5]) came to 100%; in data set [1] (setting [6]), 100%; in data set [1] (setting [7]) it was 97%; in data set [1] (setting [8]) it was 98%; in data set [1] (setting [9]) it was 100%; in data set [1] (setting [10]), 100%. The EC50 in data set [2] was no more than 300 nM.

Consider `COCc1cc(NC2CC[S+]([O-])CC2)c2[nH]c(-c3ccccc3)cc2c1` (centres unmarked) [Example 14, 5-(methoxymethyl)-N-(1-oxothian-4-yl)-2-phenyl-1H-indol-7-amine], for which the “inhibition (%)” value is on record as 100% in data set [1] (setting [5]); 100% in data set [1] (setting [6]); 97% in data set [1] (setting [7]); 99% in data set [1] (setting [8]); 100% in data set [1] (setting [9]); 100% in data set [1] (setting [10]). The EC50 in data set [2] was no more than 300 nM.

Turning to `CCOCc1cc(NC2CCCC2)c2[nH]c(-c3ccccc3)cc2c1` [Example 19, N-cyclopentyl-5-(ethoxymethyl)-2-phenyl-1H-indol-7-amine], the “inhibition (%)” value in data set [1] (setting [5]) is listed as 100%; in data set [1] (setting [6]), 100%; in data set [1] (setting [7]), 99%; in data set [1] (setting [8]), 100%; in data set [1] (setting [9]), 100%; in data set [1] (setting [10]) it was 100%. In data set [2], this compound showed an EC50 of no more than 300 nM.

Take `CCOCc1cc(NC2CCOCC2)c2c(c1)c(COC)c(-c1ccccc1)n2C` [Example 29, 5-(ethoxymethyl)-3-(methoxymethyl)-1-methyl-2-phenyl-N-(tetrahydro-2H-pyran-4-yl)-1H-indol-7-amine]: the “inhibition (%)” value worked out at 1% in data set [1] (setting [5]); 100% in data set [1] (setting [6]); 6% in data set [1] (setting [7]); 95% in data set [1] (setting [8]); 10% in data set [1] (setting [9]); 100% in data set [1] (setting [10]). Also, in data set [2], the EC50 lay in the range of 300 to 1000 nM.

As for `COCCc1cc(NC2CCOCC2)c2[nH]c(-c3ccccc3)cc2c1` [Example 41, 5-(2-methoxyethyl)-2-phenyl-N-(tetrahydro-2H-pyran-4-yl)-1H-indol-7-amine], the “inhibition (%)” value in data set [1] (setting [5]) was determined as 100%; in data set [1] (setting [6]), 100%; in data set [1] (setting [7]), 99%; in data set [1] (setting [8]) it was 98%; in data set [1] (setting [9]), 100%; in data set [1] (setting [10]), 100%. Moreover, the half-maximal effective concentration (EC50) in data set [2] is no more than 300 nM.

For `CCOCc1cc(NC2CCOCC2)c2[nH]c(-c3ccccc3)c(-c3ncc[nH]3)c2c1` [Example 46, 5-(ethoxymethyl)-3-(1H-imidazol-2-yl)-2-phenyl-N-(tetrahydro-2H-pyran-4-yl)-1H-indole-7-amine], the “inhibition (%)” value turned out to be 4% in data set [1] (setting [5]); 100% in data set [1] (setting [6]); 4% in data set [1] (setting [7]); 94% in data set [1] (setting [8]); 15% in data set [1] (setting [9]); 9% in data set [1] (setting [10]). In data set [2], this compound yielded an EC50 greater than 1000 nM.

`CCOC(=O)c1ccc(NC2CCCCC2)c(N)c1` [Ferrostatin-1, reference compound]: the “inhibition (%)” value in data set [1] (setting [5]) came to 100%; in data set [1] (setting [6]), 100%; in data set [1] (setting [7]), 95%; in data set [1] (setting [8]), 97%; in data set [1] (setting [9]), 83%; in data set [1] (setting [10]) it was 100%.
